pIC50: −log10 of the molar value.
Key:
[1] = system: HepG2; assay: Cytotoxicity against human HepG2 cells assessed as growth inhibition at 40 uM after 72 hrs by MTT assay relative to control; assay type: functional; conditions: HepG2, 72 h, read-out: GI
[2] = system: MDA-MB-231; assay: Cytotoxicity against human MDA-MB-231 cells assessed as growth inhibition at 40 uM after 72 hrs by MTT assay relative to control; assay type: functional; conditions: MDA-MB-231, 72 h, read-out: GI
[3] = system: HepG2; assay: Cytotoxicity against human HepG2 cells assessed as growth inhibition at 20 uM after 72 hrs by MTT assay relative to control; assay type: functional; conditions: HepG2, 72 h, read-out: GI
[4] = system: MDA-MB-231; assay: Cytotoxicity against human MDA-MB-231 cells assessed as growth inhibition at 20 uM after 72 hrs by MTT assay relative to control; assay type: functional; conditions: MDA-MB-231, 72 h, read-out: GI
[5] = system: A549; assay: Cytotoxicity against human A549 cells assessed as growth inhibition after 72 hrs by MTT assay; assay type: functional, cell-based; conditions: A549, 72 h
[6] = system: MDA-MB-231; assay: Cytotoxicity against human MDA-MB-231 cells assessed as growth inhibition at 10 uM after 72 hrs by MTT assay relative to control; assay type: functional; conditions: MDA-MB-231, 72 h, read-out: GI
[7] = Selectivity ratio of IC50 for human HepG2 cells to IC50 for human MDA-MB-231 cells; assay type: functional
[8] = system: MDA-MB-231; assay: Cytotoxicity against human MDA-MB-231 cells assessed as growth inhibition after 72 hrs by MTT assay; assay type: functional, cell-based; conditions: MDA-MB-231, 72 h
[9] = Selectivity ratio of IC50 for human A549 cells to IC50 for human MDA-MB-231 cells; assay type: functional
[10] = system: HepG2; assay: Cytotoxicity against human HepG2 cells assessed as growth inhibition after 72 hrs by MTT assay; assay type: functional, cell-based; conditions: HepG2, 72 h
[11] = system: HepG2; assay: Cytotoxicity against human HepG2 cells assessed as growth inhibition at 10 uM after 72 hrs by MTT assay relative to control; assay type: functional; conditions: HepG2, 72 h, read-out: GI
[12] = Chemical stability in PBS at pH 8 at 1000 uM after 24 hrs by HPLC method; assay type: physicochemical; conditions: buffer, pH 8, 24 h
[13] = Chemical stability in PBS at pH 7.4 assessed as parent compound remaining at 1000 uM after 24 hrs by HPLC method; assay type: physicochemical; conditions: read-out: Stability
[14] = Chemical stability in PBS at pH 6 at 1000 uM after 3 to 24 hrs by HPLC method; assay type: physicochemical; conditions: buffer, pH 6, 1000 µM
[15] = Drug metabolism in human MDA-MB-231 cells assessed as nitric oxide release at 30 uM after 0.5 to 30 hrs by Griess assay; assay type: ADME, cell-based; conditions: mda-mb-231, 30 µM
[16] = Drug degradation in PBS at pH 8 at 1000 uM after 24 hrs by HPLC method; assay type: physicochemical; conditions: read-out: Drug degradation
[17] = Drug degradation in PBS at pH 7.4 at 1000 uM after 24 hrs by HPLC method; assay type: physicochemical; conditions: read-out: Drug degradation

Stability [12]	remaining at 24 h, 1000 µM [13]	Drug metabolism [15]	SMILES	inhibition of growth at 40 µM [1]	inhibition of growth at 40 µM [2]	inhibition of growth at 20 µM [3]	inhibition of growth at 20 µM [4]	pIC50 [5]	inhibition of growth at 10 µM [6]	Ratio IC50 [7]	pIC50 [8]	Ratio IC50 [9]	pIC50 [10]	inhibition of growth at 10 µM [11]	Stability [14]	degraded at 24 h, 1000 µM [16]	degraded at 24 h, 1000 µM [17]
			CC1=C(CCC(=O)O)C(=O)c2c(O)cccc2C1=O	20.3%	5%												
			CC1=C(CCCC(=O)O)C(=O)c2c(O)cccc2C1=O			23.2%	6.1%										
			CC1=C(CC(=O)OCCCOc2no[n+]([O-])c2S(=O)(=O)c2ccccc2)C(=O)c2c(O)cccc2C1=O					5.15	97.7%	2.5	5.75	4	5.36	97.2%			
Stable	> 98%		CC1=C(CCC(=O)OCCOc2no[n+]([O-])c2S(=O)(=O)c2ccccc2)C(=O)c2c(O)cccc2C1=O					5.03	97.6%	2.5	5.92	7.7	5.53	95.7%	Stable		
		Metabolite_Detected	CC1=C(CCC(=O)OCC(C)COc2no[n+]([O-])c2S(=O)(=O)c2ccccc2)C(=O)c2c(O)cccc2C1=O (centres undefined)					4.74	97.4%	2.5	5.57	6.8	5.17	73.4%			
			CC1=C(C(C)CC(=O)OCCCCOc2no[n+]([O-])c2S(=O)(=O)c2ccccc2)C(=O)c2c(O)cccc2C1=O (centres undefined)					4.71	92.7%	2.1	5.70	10	5.37	89.2%			
			CC1=C(CCCC(=O)OCCOc2no[n+]([O-])c2S(=O)(=O)c2ccccc2)C(=O)c2c(O)cccc2C1=O					4.99	97.9%	2.7	5.82	6.7	5.38	95.1%			
			CC1=C(CC(=O)O)C(=O)c2c(O)cccc2C1=O	11%	2.4%												
		Metabolite_Detected	CC1=C(C(C)CC(=O)OCC(C)COc2no[n+]([O-])c2S(=O)(=O)c2ccccc2)C(=O)c2c(O)cccc2C1=O (centres undefined)					4.89	94.4%	1.8	5.68	6.1	5.43	91.5%			
		Metabolite_Detected	CC1=C(CC(=O)OCCCCOc2no[n+]([O-])c2S(=O)(=O)c2ccccc2)C(=O)c2c(O)cccc2C1=O					< 4.70	96.3%	1.5	5.28	>3.8	5.11	87.2%			
		Metabolite_Detected	CC1=C(CCC(=O)OCCCOc2no[n+]([O-])c2S(=O)(=O)c2ccccc2)C(=O)c2c(O)cccc2C1=O					< 4.70	96.8%	1.6	5.37	>4.7	5.17	95.1%			
			CC1=C(CC(=O)OCCOc2no[n+]([O-])c2S(=O)(=O)c2ccccc2)C(=O)c2c(O)cccc2C1=O					4.73	97.3%	1.9	5.49		5.21	93.3%			
		Metabolite_Detected	CC1=C(CC(=O)OCC(C)COc2no[n+]([O-])c2S(=O)(=O)c2ccccc2)C(=O)c2c(O)cccc2C1=O (centres undefined)					5.23	97.3%	2	5.82	3.9	5.52	96.6%			
		Metabolite_Detected	CC1=C(C(C)CC(=O)OCCCOc2no[n+]([O-])c2S(=O)(=O)c2ccccc2)C(=O)c2c(O)cccc2C1=O (centres undefined)					4.86	95.3%	1.8	5.62	5.8	5.36	92.7%			
		Metabolite_Detected	CC1=C(CCC(=O)OCCCCOc2no[n+]([O-])c2S(=O)(=O)c2ccccc2)C(=O)c2c(O)cccc2C1=O					5.08	97.6%	2.7	5.91	6.7	5.48	95.4%			
			CC(=O)c1cc2c(o1)C(=O)c1ccccc1C2=O [NAPABUCASIN]					6.13		1.8	6.47	2.2	6.18				
			CC1=CC(=O)c2c(O)cccc2C1=O [PLUMBAGIN]					4.91	32.8%	0.7	4.85	0.9	4.97	41%	Stable	> 95%	> 95%
